The values below come from patent publication US6982283B2, “Method for treating drug-induced constipation” (Sucampo AG, priority 2001, dated 2006).

Holding throughout (type): in vivo
Assay [1] has as its system Male ICR mice. Briefly: Antagonism to imipramine-induced constipation: carbon marker in the caecum. Here is the method: Male ICR mice were fasted overnight in wire-bottomed cages to prevent coprophagia, and 10 mice were used for each group. Imipramine hydrochloride (Wako Pure Chemical Industries, Ltd., Osaka, Japan) at 60 mg/kg was injected intraperitoneally to the animals. Immediately after the imipramine-injection, 0.1 mL of carbon marker (10% carbon powder suspension in 5% gum Arabic) and vehicle (physiological saline solution containing 0.01% polysorbate 80 and 0.5% ethanol) or test substance (13,14-dihydro-15-keto-16,16-difluoro-PGE1) in an administration volume of 5 mL/kg were orally administered. A normal control group received carbon marker and vehicle in the above volume orally without the imipramine-injection. One hundred and fifty minutes after the administration of carbon marker, animals were sacrificed by cervical dislocation, and examined the caecum for the presence of carbon marker. It was judged as a positive response when carbon marker was found in the caecum (positive scores).
The effect to the imipramine-induced constipation was evaluated on the cathartic (sennoside) clinically used for the treatment of the constipation in patients. Preparation and dose levels of sennoside were the same as described in example 2. The experimental procedure was the same as described in example 4.

The test system of assay [2] is Male ICR mice. Briefly: Antagonism to morphine-induced constipation: graphite marker in the caecum. Conditions: for Effect on morphine-induced constipation: at the clinical daily dosage and at 10 times of the clinical daily dosage.
Assay [3] concerns Male ICR mice. Briefly: Effect on analgesic action of morphine: tail-pinch response time. How it is done: Male ICR mice were fasted overnight in wire-bottomed cages to prevent coprophagia. The tail of the animal was pinched with clamp forceps, and the response time from the tail-pinch to fierce striking, biting or crying was measured. 18 mice whose response time of 2 second or shorter were used as test animals. […] Immediately after the morphine-injection, vehicle (physiological saline containing 0.01% polysorbate 80 and 0.5% ethanol) or 1, 10, or 100 μg/kg test substance (13,14-dihydro-15-keto-16,16-difluoro-PGE1) dissolved in the vehicle was administered orally in an administration volume of 5 mL/kg. The animals of normal control group received vehicle orally in the above volume without morphine-injection.
The response time of each animal following tail-pinch was measured 30, 60, 90, 120 and 150 minutes after the administration. If a mouse took longer than 10 seconds to respond, measurement was stopped to avoid injuring the tail tissue, and the response time was recorded as 10 second.

Where [4] appears, read: imipramine 60 mg/kg i.p. + vehicle orally, Example 4, Table 5.
The mark [5] stands for this setting: imipramine 60 mg/kg i.p. + vehicle, Example 5, Table 6.
Where [6] appears, read: morphine 5 mg/kg i.p. + sodium picosulfate 0.15 mg/kg, 150 min after graphite marker.
The mark [7] stands for this setting: morphine 5 mg/kg i.p. + sodium picosulfate 1.5 mg/kg, 150 min after graphite marker.
Setting [8] is: imipramine 60 mg/kg i.p. + test substance 10 μg/kg orally, 150 min after carbon marker.
[9] abbreviates: imipramine 60 mg/kg i.p. + test substance 100 μg/kg orally, 150 min after carbon marker.
The mark [10] stands for this setting: imipramine 60 mg/kg i.p. + sennoside 0.48 μg/kg, 150 min after carbon marker.
[11] abbreviates: imipramine 60 mg/kg i.p. + sennoside 4.8 μg/kg, 150 min after carbon marker.
Where [12] appears, read: morphine 5 mg/kg i.p. + sennoside 0.48 mg/kg, 150 min after graphite marker.
[13] abbreviates: morphine 5 mg/kg i.p. + sennoside 4.8 mg/kg, 150 min after graphite marker.

Structures can show the parent of a compound that is named as a salt. Marks after values point to notes of the source that are not given here.

Regarding `CN(C)CCCN1c2ccccc2CCc2ccccc21` [Imipramine, Imipramine hydrochloride], in the assay on Male ICR mice [1] (setting [4]), the “Number of animals with positive scores/Number of animals tested” value is on record as 1/10 and the “Ratio of animals with positive scores” value is on record as 10%. For the same molecule, in the assay with Male ICR mice [1] (setting [5]), the “Number of animals with positive scores/Number of animals tested” value is 1/10 and the “Ratio of animals with positive scores” value came to 10%.
With `CN1CC[C@]23c4c5ccc(O)c4O[C@H]2[C@@H](O)C=C[C@H]3[C@H]1C5.Cl` [Morphine, Morphine hydrochloride, reference compound], the “Number of animals with positive scores/Number of animals tested” value is on record as 2/10 in the assay with Male ICR mice [2] (morphine 5 mg/kg i.p. + vehicle (0.5% tragacanth solution), Example 2, Table 2); 3/10 in the assay on Male ICR mice [2] (morphine 5 mg/kg i.p. + vehicle (physiological saline), Example 2, Table 3); 3 with Male ICR mice [2] (morphine 5 mg/kg i.p. + vehicle (saline, 0.01% polysorbate 80, 0.5% ethanol) orally, Example 1, Table 1); 3/15 in the assay on Male ICR mice [2] (morphine 5 mg/kg i.p. + vehicle (saline, 0.01% polysorbate 80, 0.5% ethanol) orally, Example 1, Table 1, hydrochloride). Moreover, the “Response time, mean ± S.E.” value in the assay on Male ICR mice [3] (morphine 5 mg/kg i.p. + vehicle orally, 30 min after administration) is 2.8 ± 0.6 s; in the assay with Male ICR mice [3] (morphine 5 mg/kg i.p. + vehicle orally, 60 min after administration), 1.9 ± 0.3 s; with Male ICR mice [3] (morphine 5 mg/kg i.p. + vehicle orally, 90 min after administration) it was 1.8 ± 0.4^+ sec; in the assay on Male ICR mice [3] (morphine 5 mg/kg i.p. + vehicle orally, 120 min after administration), 1.4 ± 0.2 s; in the assay on Male ICR mice [3] (morphine 5 mg/kg i.p. + vehicle orally, 150 min after administration), 1.2 ± 0.1 s; in the assay with Male ICR mice [3] (morphine 5 mg/kg i.p. + vehicle orally, before administration) it was 1.0 ± 0.1 s.
Take `O=S(=O)(O)Oc1ccc(C(c2ccc(OS(=O)(=O)O)cc2)c2ccccn2)cc1` [sodium picosulfate, Sodium picosulfate]: the “Effect on morphine-induced constipation” value in the assay on Male ICR mice [2] is on record as “no effect”. Also, in the assay on Male ICR mice [2] (setting [6]), the “Number of animals with positive scores/Number of animals tested” value is given as 3/10 and the “Ratio of animals with positive scores” value is on record as 30%. In addition, in the assay on Male ICR mice [2] (setting [7]), the “Number of animals with positive scores/Number of animals tested” value was 4/10 and the “Ratio of animals with positive scores” value is recorded as 40%.
For `CCCCC(F)(F)C(=O)CCC1C(O)CC(=O)C1CCCCCCC(=O)O` (centres unmarked) [test substance, 13,14-dihydro-15-keto-16,16-difluoro-PGE1], the “Number of animals with positive scores/Number of animals tested” value in the assay on Male ICR mice [1] (setting [8]) is 3/10; in the assay with Male ICR mice [1] (setting [9]) it was 7/10**. The “Ratio of animals with positive scores” value with Male ICR mice [1] (setting [8]) is listed as 30%; in the assay with Male ICR mice [1] (setting [9]), 70%; with Male ICR mice [2] (morphine 5 mg/kg i.p. + test substance 1 μg/kg orally, 150 min after graphite marker), 60%; with Male ICR mice [2] (morphine 5 mg/kg i.p. + test substance 10 μg/kg orally, 150 min after graphite marker) it was 87%; with Male ICR mice [2] (morphine 5 mg/kg i.p. + test substance 100 μg/kg orally, 150 min after graphite marker) it was 93%. Also, in the assay on Male ICR mice [2] (test substance 1, 10 or 100 μg/kg orally immediately after morphine), the “Antagonism of morphine-induced constipation compared with control (morphine+vehicle) group” value is listed as “significantly antagonized”. Further, the “Response time, mean ± S.E.” value was 3.2 ± 0.7 s in the assay on Male ICR mice [3] (morphine 5 mg/kg i.p. + test substance 1 μg/kg orally, 30 min after administration); 2.3 ± 0.6^+ sec with Male ICR mice [3] (morphine 5 mg/kg i.p. + test substance 1 μg/kg orally, 60 min after administration); 1.5 ± 0.2 s in the assay with Male ICR mice [3] (morphine 5 mg/kg i.p. + test substance 1 μg/kg orally, 90 min after administration); 1.3 ± 0.1 s in the assay on Male ICR mice [3] (morphine 5 mg/kg i.p. + test substance 1 μg/kg orally, 120 min after administration); 1.3 ± 0.1 s with Male ICR mice [3] (morphine 5 mg/kg i.p. + test substance 1 μg/kg orally, 150 min after administration); 1.0 ± 0.1 s in the assay on Male ICR mice [3] (morphine 5 mg/kg i.p. + test substance 1 μg/kg orally, before administration). Also, the “Response time, mean ± S.E.” value is 3.4 ± 0.5 s in the assay with Male ICR mice [3] (morphine 5 mg/kg i.p. + test substance 10 μg/kg orally, 30 min after administration); 1.8 ± 0.2 s in the assay on Male ICR mice [3] (morphine 5 mg/kg i.p. + test substance 10 μg/kg orally, 60 min after administration); 1.4 ± 0.1 s in the assay with Male ICR mice [3] (morphine 5 mg/kg i.p. + test substance 10 μg/kg orally, 90 min after administration); 1.3 ± 0.1 s in the assay with Male ICR mice [3] (morphine 5 mg/kg i.p. + test substance 10 μg/kg orally, 120 min after administration); 1.2 ± 0.1 s in the assay with Male ICR mice [3] (morphine 5 mg/kg i.p. + test substance 10 μg/kg orally, 150 min after administration); 1.0 ± 0.1 s in the assay with Male ICR mice [3] (morphine 5 mg/kg i.p. + test substance 10 μg/kg orally, before administration). The “Response time, mean ± S.E.” value with Male ICR mice [3] (morphine 5 mg/kg i.p. + test substance 100 μg/kg orally, 30 min after administration) is 2.9 ± 0.6 s; in the assay with Male ICR mice [3] (morphine 5 mg/kg i.p. + test substance 100 μg/kg orally, 60 min after administration) it was 1.8 ± 0.3 s; with Male ICR mice [3] (morphine 5 mg/kg i.p. + test substance 100 μg/kg orally, 90 min after administration), 1.5 ± 0.1 s; in the assay on Male ICR mice [3] (morphine 5 mg/kg i.p. + test substance 100 μg/kg orally, 120 min after administration), 1.2 ± 0.1 s; with Male ICR mice [3] (morphine 5 mg/kg i.p. + test substance 100 μg/kg orally, 150 min after administration) it was 1.3 ± 0.1 s; with Male ICR mice [3] (morphine 5 mg/kg i.p. + test substance 100 μg/kg orally, before administration), 1.0 ± 0.1 s. Besides, the “Effect on the analgesic action of morphine” value in the assay with Male ICR mice [3] (test substance 1, 10 or 100 μg/kg orally, compared with morphine+vehicle group) is given as “did not affect”.
Consider Sennoside, for which the “Effect on the imipramine-induced constipation” value in the assay with Male ICR mice [1] (Example 5, results of Table 6) is given as “no effect”. Besides, the “Number of animals with positive scores/Number of animals tested” value in the assay on Male ICR mice [1] (setting [10]), in the assay on Male ICR mice [1] (setting [11]), in the assay with Male ICR mice [2] (setting [12]) and in the assay with Male ICR mice [2] (setting [13]) was 2/10 in each case. For the same molecule, the “Ratio of animals with positive scores” value with Male ICR mice [1] (setting [10]), with Male ICR mice [1] (setting [11]), with Male ICR mice [2] (setting [12]) and in the assay on Male ICR mice [2] (setting [13]) was 20% in each case. Besides, the “Effect on morphine-induced constipation” value in the assay on Male ICR mice [2] is “no effect”.
